In ChEMBL document CHEMBL1649138, “In vitro activity of Isavuconazole against Aspergillus species and zygomycetes according to the methodology of the European Committee on Antimicrobial Susceptibility Testing” (Antimicrob Agents Chemother, 2009):
Converted amounts (≈) assume the structure as drawn.

Experiments:
[1] = system: Aspergillus flavus; assay: Antifungal activity against Aspergillus flavus hyphae by EUCAST method; format: functional
[2] = system: Aspergillus terreus; assay: Antifungal activity against amphotericin B-resistant Aspergillus terreus by EUCAST method; format: functional
[3] = system: Plasma; assay: Plasma concentration in human; format: ADME, cell-free
[4] = system: Absidia; assay: Antifungal activity against Absidia by EUCAST method; format: functional
[5] = system: Mucor; assay: Fungicidal activity against Mucor; format: functional
[6] = system: Rhizomucor; assay: Antifungal activity against Rhizomucor by EUCAST method; format: functional
[7] = system: Aspergillus flavus; assay: Antifungal activity against Aspergillus flavus by EUCAST method; format: functional
[8] = system: Aspergillus fumigatus; assay: Antifungal activity against Aspergillus fumigatus by broth microdilution method; format: functional
[9] = system: Aspergillus fumigatus; assay: Antifungal activity against Aspergillus fumigatus hyphae by EUCAST method; format: functional
[10] = system: Rhizopus; assay: Fungicidal activity against Rhizopus; format: functional
[11] = system: Aspergillus flavus; assay: Fungicidal activity against Aspergillus flavus; format: functional
[12] = system: Mucor; assay: Antifungal activity against Mucor by EUCAST method; format: functional
[13] = system: Cunninghamella; assay: Fungicidal activity against Cunninghamella; format: functional
[14] = system: Rhizomucor; assay: Antifungal activity against Rhizomucor hyphae by EUCAST method; format: functional
[15] = system: Rhizopus; assay: Antifungal activity against Rhizopus hyphae by EUCAST method; format: functional
[16] = system: Mucor; assay: Antifungal activity against Mucor hyphae by EUCAST method; format: functional
[17] = system: Aspergillus fumigatus; assay: Antifungal activity against Aspergillus fumigatus by EUCAST method; format: functional
[18] = system: Absidia; assay: Fungicidal activity against Absidia; format: functional
[19] = system: Aspergillus terreus; assay: Antifungal activity against amphotericin B-resistant Aspergillus terreus by broth microdilution method; format: functional
[20] = system: Aspergillus terreus; assay: Antifungal activity against amphotericin B-resistant Aspergillus terreus hyphae by EUCAST method; format: functional
[21] = system: Aspergillus flavus; assay: Antifungal activity against Aspergillus flavus by broth microdilution method; format: functional
[22] = system: Aspergillus niger; assay: Antifungal activity against Aspergillus niger by EUCAST method; format: functional
[23] = system: Aspergillus terreus; assay: Fungicidal activity against amphotericin B-resistant Aspergillus terreus; format: functional
[24] = system: Aspergillus fumigatus; assay: Fungicidal activity against Aspergillus fumigatus; format: functional
[25] = system: Cunninghamella; assay: Antifungal activity against Cunninghamella by EUCAST method; format: functional
[26] = system: Absidia; assay: Antifungal activity against Absidia hyphae by EUCAST method; format: functional
[27] = system: Rhizopus; assay: Antifungal activity against Rhizopus by EUCAST method; format: functional
[28] = system: Aspergillus niger; assay: Antifungal activity against Aspergillus niger by broth microdilution method; format: functional
[29] = system: Aspergillus niger; assay: Antifungal activity against Aspergillus niger hyphae by EUCAST method; format: functional
[30] = system: Aspergillus niger; assay: Fungicidal activity against Aspergillus niger; format: functional
[31] = system: Cunninghamella; assay: Antifungal activity against Cunninghamella hyphae by EUCAST method; format: functional
[32] = system: Rhizomucor; assay: Fungicidal activity against Rhizomucor; format: functional

C[C@@H](c1nc(-c2ccc(C#N)cc2)cs1)[C@](O)(Cn1cncn1)c1cc(F)ccc1F [ISAVUCONAZOLE]
MIC90 [1]: 2 mg/L (≈ 4.57 µM)
MIC50 [2]: 0.5 mg/L (≈ 1.14 µM)
MIC90 [2]: 2 mg/L (≈ 4.57 µM)
Cp [3]: > 1.7 µg/mL
MIC50 [4]: 4 mg/L (≈ 9.14 µM)
MIC90 [4]: > 8 mg/L
MIC90 [5]: > 8 mg/L
MIC50 [6]: > 8 mg/L
MIC90 [6]: > 8 mg/L
MIC50 [7]: 1 mg/L (≈ 2.29 µM)
MIC90 [7]: 2 mg/L (≈ 4.57 µM)
MIC [8]: 0.63 mg/L (≈ 1.44 µM)
MIC90 [9]: 1 mg/L (≈ 2.29 µM)
MIC90 [10]: > 8 mg/L
MIC90 [11]: 2 mg/L (≈ 4.57 µM)
MIC50 [12]: > 8 mg/L
MIC90 [12]: > 8 mg/L
MIC90 [13]: > 8 mg/L
MIC90 [14]: > 8 mg/L
MIC90 [15]: > 8 mg/L
MIC90 [16]: > 8 mg/L
MIC50 [17]: 1 mg/L (≈ 2.29 µM)
MIC90 [17]: 1 mg/L (≈ 2.29 µM)
MIC90 [18]: > 8 mg/L
MIC [19]: 0.68 mg/L (≈ 1.55 µM)
MIC90 [20]: 2 mg/L (≈ 4.57 µM)
MIC [21]: 0.76 mg/L (≈ 1.74 µM)
MIC50 [22]: 2 mg/L (≈ 4.57 µM)
MIC90 [22]: 4 mg/L (≈ 9.14 µM)
MIC90 [23]: 2 mg/L (≈ 4.57 µM)
MIC [24]: 1 mg/L (≈ 2.29 µM)
MIC90 [24]: 1 mg/L (≈ 2.29 µM)
MIC50 [25]: 4 mg/L (≈ 9.14 µM)
MIC90 [25]: > 8 mg/L
MIC90 [26]: > 8 mg/L
MIC50 [27]: 4 mg/L (≈ 9.14 µM)
MIC90 [27]: > 8 mg/L
MIC [28]: 2.36 mg/L (≈ 5.39 µM)
MIC90 [29]: 8 mg/L (≈ 18.3 µM)
MIC90 [30]: > 8 mg/L
MIC90 [31]: > 8 mg/L
MIC90 [32]: > 8 mg/L

CC[C@@H]([C@H](C)O)n1ncn(-c2ccc(N3CCN(c4ccc(OC[C@@H]5CO[C@@](Cn6cncn6)(c6ccc(F)cc6F)C5)cc4)CC3)cc2)c1=O [POSACONAZOLE]
MIC90 [1]: 1 mg/L (≈ 1.43 µM)
MIC [2]: 0.125 mg/L (≈ 0.178 µM)
MIC50 [2]: 0.125 mg/L (≈ 0.178 µM)
MIC90 [2]: 0.5 mg/L (≈ 0.713 µM)
MIC [4]: 0.5 mg/L (≈ 0.713 µM)
MIC50 [4]: 0.5 mg/L (≈ 0.713 µM)
MIC90 [4]: 1 mg/L (≈ 1.43 µM)
MIC90 [5]: > 8 mg/L
MIC [6]: 1 mg/L (≈ 1.43 µM)
MIC50 [6]: 1 mg/L (≈ 1.43 µM)
MIC90 [6]: 4 mg/L (≈ 5.71 µM)
MIC50 [7]: 0.125 mg/L (≈ 0.178 µM)
MIC90 [7]: 0.5 mg/L (≈ 0.713 µM)
MIC90 [9]: 0.5 mg/L (≈ 0.713 µM)
MIC90 [10]: > 8 mg/L
MIC90 [11]: 2 mg/L (≈ 2.85 µM)
MIC50 [12]: 1 mg/L (≈ 1.43 µM)
MIC90 [12]: 1 mg/L (≈ 1.43 µM)
MIC [13]: > 8 mg/L
MIC90 [13]: 8 mg/L (≈ 11.4 µM)
MIC90 [14]: 8 mg/L (≈ 11.4 µM)
MIC90 [15]: > 8 mg/L
MIC90 [16]: > 8 mg/L
MIC50 [17]: 0.5 mg/L (≈ 0.713 µM)
MIC90 [17]: 1 mg/L (≈ 1.43 µM)
MIC [18]: 4 mg/L (≈ 5.71 µM)
MIC90 [18]: 4 mg/L (≈ 5.71 µM)
MIC90 [20]: 1 mg/L (≈ 1.43 µM)
MIC [22]: 0.25 mg/L (≈ 0.357 µM)
MIC50 [22]: 0.25 mg/L (≈ 0.357 µM)
MIC90 [22]: 0.5 mg/L (≈ 0.713 µM)
MIC90 [23]: 2 mg/L (≈ 2.85 µM)
MIC90 [24]: 2 mg/L (≈ 2.85 µM)
MIC [25]: 1 mg/L (≈ 1.43 µM)
MIC50 [25]: 1 mg/L (≈ 1.43 µM)
MIC90 [25]: 1 mg/L (≈ 1.43 µM)
MIC [26]: 4 mg/L (≈ 5.71 µM)
MIC90 [26]: 4 mg/L (≈ 5.71 µM)
MIC50 [27]: 2 mg/L (≈ 2.85 µM)
MIC90 [27]: 4 mg/L (≈ 5.71 µM)
MIC [29]: 1 mg/L (≈ 1.43 µM)
MIC90 [29]: 1 mg/L (≈ 1.43 µM)
MIC90 [30]: 4 mg/L (≈ 5.71 µM)
MIC90 [31]: 8 mg/L (≈ 11.4 µM)
MIC90 [32]: > 8 mg/L

C[C@@H](c1ncncc1F)[C@](O)(Cn1cncn1)c1ccc(F)cc1F [VORICONAZOLE]
MIC90 [1]: 2 mg/L (≈ 5.73 µM)
MIC50 [2]: 0.5 mg/L (≈ 1.43 µM)
MIC90 [2]: 2 mg/L (≈ 5.73 µM)
MIC [4]: > 8 mg/L
MIC50 [4]: > 8 mg/L
MIC90 [4]: > 8 mg/L
MIC [5]: > 8 mg/L
MIC90 [5]: > 8 mg/L
MIC [6]: > 8 mg/L
MIC50 [6]: > 8 mg/L
MIC90 [6]: > 8 mg/L
MIC50 [7]: 1 mg/L (≈ 2.86 µM)
MIC90 [7]: 1 mg/L (≈ 2.86 µM)
MIC90 [9]: 1 mg/L (≈ 2.86 µM)
MIC [10]: > 8 mg/L
MIC90 [10]: > 8 mg/L
MIC90 [11]: 4 mg/L (≈ 11.5 µM)
MIC [12]: > 8 mg/L
MIC50 [12]: > 8 mg/L
MIC90 [12]: > 8 mg/L
MIC [13]: > 8 mg/L
MIC90 [13]: > 8 mg/L
MIC [14]: > 8 mg/L
MIC90 [14]: > 8 mg/L
MIC [15]: > 8 mg/L
MIC90 [15]: > 8 mg/L
MIC [16]: > 8 mg/L
MIC90 [16]: > 8 mg/L
MIC50 [17]: 1 mg/L (≈ 2.86 µM)
MIC90 [17]: 1 mg/L (≈ 2.86 µM)
MIC [18]: > 8 mg/L
MIC90 [18]: > 8 mg/L
MIC90 [20]: 1 mg/L (≈ 2.86 µM)
MIC50 [22]: 2 mg/L (≈ 5.73 µM)
MIC90 [22]: 2 mg/L (≈ 5.73 µM)
MIC90 [23]: 2 mg/L (≈ 5.73 µM)
MIC90 [24]: 4 mg/L (≈ 11.5 µM)
MIC [25]: > 8 mg/L
MIC50 [25]: > 8 mg/L
MIC90 [25]: > 8 mg/L
MIC [26]: > 8 mg/L
MIC90 [26]: > 8 mg/L
MIC [27]: > 8 mg/L
MIC50 [27]: > 8 mg/L
MIC90 [27]: > 8 mg/L
MIC90 [29]: 4 mg/L (≈ 11.5 µM)
MIC90 [30]: 8 mg/L (≈ 22.9 µM)
MIC [31]: > 8 mg/L
MIC90 [31]: > 8 mg/L
MIC [32]: > 8 mg/L
MIC90 [32]: > 8 mg/L
